Our source for the plasma concentrations values is patent publication US20030165954A1, “Cancer profiles” (Third Wave Technologies, Inc., priority 2002, published 2003).

For this data set the following is noted: mouse, in vivo, iv.

Molecules are shown by their SMILES.

Regarding `CN(Cc1cnc2nc(N)nc(N)c2n1)c1ccc(C(=O)N[C@@H](CCC(=O)O)C(=O)O)cc1` [MTX, methotrexate], the plasma concentrations result was “did not reach the levels in nude mice that they do in patients receiving clinical doses”.

With `O=c1[nH]cc(F)c(=O)[nH]1` [5FU, 5-fluorouracil], the plasma concentrations entry is “did not reach the levels in nude mice that they do in patients receiving clinical doses”.
